Assay results taken from US4873225A, “1-n-(4-amino-3-fluoro-2-hydroxybutyryl)-kanamycins” (Zaidan Hojin Biseibutsu Kagaku Kenkyu Kai, priority 1987, dated 1989).
Values after ≈ are worked out from the molar mass of the structure shown. Like-named read-outs stand apart in the source and are kept apart here.

Legend:
Experiment in all cases: MIC, standard serial dilution method
Format in all cases: cell-based
Bacillus subtilis PCI219 = settings: PCI219, pH 7, read-out: MIC
Procedure: (§1) Antibacterial activities of each of the abovementioned compounds of the general formula (I) according to this invention were determined by measuring their minimum growth inhibitory concentrations (MIC, mcg/ml) against various bacteria in accordance with a standard serial dilution method. The pH condition of the incubation medium where the MIC data were measured was set at pH 7, unless otherwise specifically indicated. For the sake of comparison, the antibacterial spectra of 1-N-{(S)-4-amino-2-hydroxybutyryl}kanamycin A (i.e., amikacin) and 1-N-{(S)-4-amino-2-hydroxybutyryl}-3,4-dideoxykanamycin B (i.e., habekacin) were also measured in the same manner.

[1] = test system: Corynebacterium bovis 1810; settings: Corynebacterium bovis, 1810, pH 7; read-out: MIC
Procedure: as §1

Escherichia coli JR 225 = settings: JR225, pH 7
Procedure: as §1

[2] = test system: Escherichia coli K-12 LA 290 R55; settings: K12LA290R55, pH 7
Procedure: as §1

[3] = test system: Escherichia coli K-12 ML 1629; settings: K12ML1629, pH 7, read-out: MIC
Procedure: as §1

Escherichia coli K-12 = settings: K12, pH 7
Procedure: as §1

[4] = test system: Klebsiella pneumoniae 22 #3038; settings: pH 7, read-out: MIC
Procedure: as §1

Mycobacterium 607 = settings: Mycobacterium, 607, pH 7; read-out: MIC
Procedure: as §1

Proteus rettgeri GN 311 = settings: Providencia rettgeri, GN311, pH 7; read-out: MIC
Procedure: as §1

Providencia sp. Pv 16 = settings: SP.PV16, pH 7, read-out: MIC
Procedure: as §1

[5] = test system: Pseudomonas aeruginosa A3; settings: A3, pH 7, read-out: MIC
Procedure: as §1

[6] = test system: Pseudomonas aeruginosa GN 315; settings: GN315, pH 7
Procedure: as §1

Serratia marcescens = settings: pH 7, read-out: MIC
Procedure: as §1

[7] = test system: Staphylococcus aureus 209P; settings: pH 7, read-out: MIC
Procedure: as §1

[8] = test system: Staphylococcus aureus Ap01; settings: AP01, pH 7, read-out: MIC
Procedure: as §1

Escherichia coli K-12 R5 = settings: K12R5, pH 7
Procedure: as §1
Infectious diseases by Escherichia coli K-12 R5 tend to increase in recent days. The compounds of this invention are therefore important for the therapeutic treatment of bacterial infections.

[9] = test system: Escherichia coli JR66/W677; settings: Escherichia coli, read-out: MIC
Procedure: as §1
(§2) (a) The antibacterial activities of the compounds of this invention are not decreased practically even under pH conditions of pH […] as compared to their antibacterial activities under neutral conditions of pH 7.

[10] = test system: Pseudomonas aeruginosa TI 13; settings: Pseudomonas aeruginosa, read-out: MIC
Procedure: as §1, §2

SMILES: NC[C@@H](F)[C@H](O)C(=O)N[C@@H]1C[C@H](N)[C@@H](O[C@H]2O[C@H](CN)[C@@H](O)[C@H](O)[C@H]2O)[C@H](F)[C@H]1O[C@H]1O[C@H](CO)[C@@H](O)[C@H](N)[C@H]1O [Invention Compound No. 4, 1-N-{(2R,3R)-4-Amino-3-fluoro-2-hydroxybutyryl}-5-deoxy-5-fluorokanamycin A]
- MIC (Bacillus subtilis PCI219): 3.12 µg/mL (≈ 5.15 µM)
- MIC [1]: 0.39 µg/mL (≈ 0.644 µM)
- MIC (Escherichia coli JR 225): 0.39 µg/mL (≈ 0.644 µM)
- MIC [2]: 0.78 µg/mL (≈ 1.29 µM)
- MIC [3]: 0.39 µg/mL (≈ 0.644 µM)
- MIC (Escherichia coli K-12): 0.78 µg/mL (≈ 1.29 µM)
- MIC [4]: 3.12 µg/mL (≈ 5.15 µM)
- MIC (Mycobacterium 607): 3.12 µg/mL (≈ 5.15 µM)
- MIC (Proteus rettgeri GN 311): 1.56 µg/mL (≈ 2.58 µM)
- MIC (Providencia sp. Pv 16): 1.56 µg/mL (≈ 2.58 µM)
- MIC [5]: 1.56 µg/mL (≈ 2.58 µM)
- MIC [6]: 25 µg/mL (≈ 41.3 µM)
- MIC (Serratia marcescens): 6.25 µg/mL (≈ 10.3 µM)
- MIC [7]: 1.56 µg/mL (≈ 2.58 µM)
- MIC [8]: 6.25 µg/mL (≈ 10.3 µM)
- MIC (Escherichia coli K-12 R5): 6.25 µg/mL (≈ 10.3 µM)
- MIC ([9]; JR66/W677, pH 7): 1.56 µg/mL (≈ 2.58 µM)
- MIC ([9]; JR66/W677, measured at pH 6): 3.12 µg/mL (≈ 5.15 µM)
- MIC ([10]; TI13, pH 7): 3.12 µg/mL (≈ 5.15 µM)
- MIC ([10]; TI13, measured at pH 6): 3.12 µg/mL (≈ 5.15 µM)

SMILES: NC[C@@H](F)[C@H](O)C(=O)N[C@@H]1C[C@H](N)[C@@H](O[C@H]2O[C@H](CN)[C@@H](O)[C@H](O)[C@H]2N)[C@H](O)[C@H]1O[C@H]1O[C@H](CO)[C@@H](O)[C@H](N)[C@H]1O [Invention Compound No. 5, 1-N-{(2R,3R)-4-Amino-3-fluoro-2-hydroxybutyryl}-kanamycin B]
- MIC (Bacillus subtilis PCI219): 1.56 µg/mL (≈ 2.59 µM)
- MIC [1]: 0.39 µg/mL (≈ 0.647 µM)
- MIC (Escherichia coli JR 225): 0.39 µg/mL (≈ 0.647 µM)
- MIC [2]: 0.78 µg/mL (≈ 1.29 µM)
- MIC [3]: 0.78 µg/mL (≈ 1.29 µM)
- MIC (Escherichia coli K-12): 0.2 µg/mL (≈ 0.332 µM)
- MIC [4]: 3.12 µg/mL (≈ 5.18 µM)
- MIC (Mycobacterium 607): 12.5 µg/mL (≈ 20.7 µM)
- MIC (Proteus rettgeri GN 311): 0.39 µg/mL (≈ 0.647 µM)
- MIC (Providencia sp. Pv 16): 1.56 µg/mL (≈ 2.59 µM)
- MIC [5]: 0.78 µg/mL (≈ 1.29 µM)
- MIC [6]: 6.25 µg/mL (≈ 10.4 µM)
- MIC (Serratia marcescens): 6.25 µg/mL (≈ 10.4 µM)
- MIC [7]: 0.78 µg/mL (≈ 1.29 µM)
- MIC [8]: 6.25 µg/mL (≈ 10.4 µM)
- MIC (Escherichia coli K-12 R5): 3.12 µg/mL (≈ 5.18 µM)
- MIC ([9]; JR66/W677, pH 7): 0.78 µg/mL (≈ 1.29 µM)
- MIC ([9]; JR66/W677, measured at pH 6): 3.12 µg/mL (≈ 5.18 µM)
- MIC ([10]; TI13, pH 7): 1.56 µg/mL (≈ 2.59 µM)
- MIC ([10]; TI13, measured at pH 6): 3.12 µg/mL (≈ 5.18 µM)

SMILES: NC[C@@H](F)[C@H](O)C(=O)N[C@@H]1C[C@H](N)[C@@H](O[C@H]2O[C@H](CN)[C@@H](O)C[C@H]2N)[C@H](O)[C@H]1O[C@H]1O[C@H](CO)[C@@H](O)[C@H](N)[C@H]1O [Invention Compound No. 6, 1-N-{(2R,3R)-4-Amino-3-fluoro-2-hydroxybutyryl}-3'-deoxykanamycin B]
- MIC (Bacillus subtilis PCI219): 0.2 µg/mL (≈ 0.341 µM)
- MIC [1]: 0.39 µg/mL (≈ 0.665 µM)
- MIC (Escherichia coli JR 225): < 0.2 µg/mL
- MIC [2]: 0.39 µg/mL (≈ 0.665 µM)
- MIC [3]: 0.78 µg/mL (≈ 1.33 µM)
- MIC (Escherichia coli K-12): < 0.2 µg/mL
- MIC [4]: 1.56 µg/mL (≈ 2.66 µM)
- MIC (Mycobacterium 607): 0.78 µg/mL (≈ 1.33 µM)
- MIC (Proteus rettgeri GN 311): 0.39 µg/mL (≈ 0.665 µM)
- MIC (Providencia sp. Pv 16): 0.78 µg/mL (≈ 1.33 µM)
- MIC [5]: < 0.2 µg/mL
- MIC [6]: 3.12 µg/mL (≈ 5.32 µM)
- MIC (Serratia marcescens): 3.12 µg/mL (≈ 5.32 µM)
- MIC [7]: 0.39 µg/mL (≈ 0.665 µM)
- MIC [8]: 0.78 µg/mL (≈ 1.33 µM)
- MIC (Escherichia coli K-12 R5): 3.12 µg/mL (≈ 5.32 µM)
- MIC ([9]; JR66/W677, pH 7): 0.39 µg/mL (≈ 0.665 µM)
- MIC ([9]; JR66/W677, measured at pH 6): 1.56 µg/mL (≈ 2.66 µM)
- MIC ([10]; TI13, pH 7): 0.78 µg/mL (≈ 1.33 µM)
- MIC ([10]; TI13, measured at pH 6): 3.12 µg/mL (≈ 5.32 µM)

SMILES: NC[C@@H]1CC[C@@H](N)[C@@H](O[C@H]2[C@H](O)[C@@H](O[C@H]3O[C@H](CO)[C@@H](O)[C@H](N)[C@H]3O)[C@H](NC(=O)[C@@H](O)[C@H](F)CN)C[C@@H]2N)O1 [Invention Compound No. 7, 1-N-{(2R,3R)-4-Amino-3-fluoro-2-hydroxybutyryl}-3',4'-dideoxykanamycin B]
- MIC (Bacillus subtilis PCI219): < 0.2 µg/mL
- MIC [1]: < 0.2 µg/mL
- MIC (Escherichia coli JR 225): 0.78 µg/mL (≈ 1.37 µM)
- MIC [2]: 0.39 µg/mL (≈ 0.683 µM)
- MIC [3]: 0.78 µg/mL (≈ 1.37 µM)
- MIC (Escherichia coli K-12): < 0.2 µg/mL
- MIC [4]: 0.78 µg/mL (≈ 1.37 µM)
- MIC (Mycobacterium 607): 0.78 µg/mL (≈ 1.37 µM)
- MIC (Proteus rettgeri GN 311): < 0.2 µg/mL
- MIC (Providencia sp. Pv 16): 0.78 µg/mL (≈ 1.37 µM)
- MIC [5]: 0.39 µg/mL (≈ 0.683 µM)
- MIC [6]: 3.12 µg/mL (≈ 5.47 µM)
- MIC (Serratia marcescens): 3.12 µg/mL (≈ 5.47 µM)
- MIC [7]: < 0.2 µg/mL
- MIC [8]: 0.78 µg/mL (≈ 1.37 µM)
- MIC (Escherichia coli K-12 R5): 3.12 µg/mL (≈ 5.47 µM)
- MIC ([9]; JR66/W677, pH 7): 0.78 µg/mL (≈ 1.37 µM)
- MIC ([9]; JR66/W677, measured at pH 6): 1.56 µg/mL (≈ 2.73 µM)
- MIC ([10]; TI13, pH 7): 0.78 µg/mL (≈ 1.37 µM)
- MIC ([10]; TI13, measured at pH 6): 1.56 µg/mL (≈ 2.73 µM)
